Reference: patent EP2459571B1, “NITROIMIDAZOOXAZINES AND THEIR USES IN ANTI-TUBERCULAR THERAPY” (priority 2009, dated 2011)
In brackets after ≈: the same amount, converted by molar mass.

Tests used:
[1] = CD-1 mice, oral, 40 mg/kg; for t½ (h) plasma: suspension in 0.5% carboxymethylcellulose/0.08% Tween 80
[2] = tested on: M. tuberculosis bacteria in the non-replicating state; assay: microbe, parasite or virus in culture; type: cell-based; settings: Mycobacterium tuberculosis, 264 h, low oxygen, 11 day, read-out: MIC LORA (anaerobic)
[3] = in vivo; settings: mouse, po, 40 mg/kg
[4] = tested on: replicating Mycobacterium tuberculosis; assay: MIC, microplate Alamar blue assay (MABA), 8 day; type: cell-based; settings: 192 h, read-out: MIC MABA (aerobic)
[5] = tested on: M. tuberculosis Erdman; set-up: species or system BALB/c mice; settings: mouse, po, 100 mg/kg
[6] = tested on: M. tuberculosis Erdman; type: in vivo, BALB/c mice; settings: for In vivo efficacy vs PA-824, Chronic: mouse, po, 100 mg/kg
[7] = Stability to human liver microsomes; type: in vitro ADME; settings: pH 7.4, 37 °C, 0.5 mg/mL protein, NADPH regenerating system, 60 min
[8] = Stability to mouse liver microsomes; type: in vitro ADME, CD-1 mouse; settings: pH 7.4, 37 °C, 0.5 mg/mL protein, NADPH regenerating system, 60 min

SMILES | t½ (h) plasma [1] | MIC [2] | AUC [3] | MIC [4] | In vivo efficacy vs PA-824, Acute [5] | In vivo efficacy vs PA-824, Chronic [6] | remaining at 1 h, 1 µM [7] | remaining at 1 h, 1 µM [8] | Cmax plasma [1] | log reduction in CFU ([6]; chronic assay, lungs, vs vehicle, oral 100 mg/kg)
O=[N+]([O-])c1cn2c(n1)OC[C@@H](OCc1ccc(-c3ccc(OC(F)(F)F)cc3)nc1)C2 [compound 6, (6S)-2-Nitro-6-({6-[4-(trifluoromethoxy)phenyl]-3-pyridinyl}methoxy)-6,7-dihydro-5H-imidazo[2,1-b][1,3]oxazine] | 24 h | 0.54 µM (≈ 0.236 µg/mL) | 81 µg·h/mL | 0.05 µM (≈ 0.0218 µg/mL) | >89 | 15 |  |  |  | 
O=[N+]([O-])c1cn2c(n1)OC[C@@H](OCc1ccc(C#Cc3ccc(C(F)(F)F)nc3)cn1)C2 [compound 25, (6S)-2-Nitro-6-[(5-{[6-(trifluoromethyl)-3-pyridinyl]ethynyl}-2-pyridinyl)methoxy]-6,7-dihydro-5H-imidazo[2,1-b][1,3]oxazine] |  | 0.74 µM (≈ 0.33 µg/mL) |  | 0.035 µM (≈ 0.0156 µg/mL) |  |  | 88% | 91% |  | 
O=[N+]([O-])c1cn2c(n1)OC[C@@H](OCC#Cc1ccc(-c3ccc(OC(F)(F)F)cc3)cc1)C2 [compound 30, (6S)-2-Nitro-6-({3-[4'-(trifluoromethoxy)[1,1'-biphenyl]-4-yl]-2-propynyl}oxy)-6,7-dihydro-5H-imidazo[2,1-b][1,3]oxazine] | 7.5 h | 0.99 µM (≈ 0.455 µg/mL) | 13.6 µg·h/mL | 0.16 µM (≈ 0.0735 µg/mL) | 89 | 11 |  |  | 570 ng/mL | 
O=[N+]([O-])c1cn2c(n1)OC[C@@H](OCc1ccc(-c3ccc(OC(F)(F)F)cc3)cc1F)C2 [compound 12, (6S)-6-{[3-Fluoro-4'-(trifluoromethoxy)[1,1'-biphenyl]-4-yl]methoxy}-2-nitro-6,7-dihydro-5H-imidazo[2,1-b][1,3]oxazine] |  | 1.2 µM (≈ 0.544 µg/mL) | 549 µg·h/mL | 0.017 µM (≈ 0.00771 µg/mL) | 33 | 16 |  |  | 6700 ng/mL | 
O=[N+]([O-])c1cn2c(n1)OC[C@@H](OCc1ccc(/C=C/c3ccc(OC(F)(F)F)cc3)cc1)C2 [compound 31, (6S)-2-Nitro-6-[(4-{(E)-2-[4-(trifluoromethoxy)phenyl]ethenyl}benzyl)oxy]-6,7-dihydro-5H-imidazo[2,1-b][1,3]oxazine] |  | 27 µM (≈ 12.5 µg/mL) |  | 0.02 µM (≈ 0.00923 µg/mL) | 5.8 |  | 99% | 98% |  | 
O=[N+]([O-])c1cn2c(n1)OC[C@@H](OCc1ccc(-c3ccc(OC(F)(F)F)cc3)cn1)C2 [compound 7, (6S)-2-Nitro-6-({5-[4-(trifluoromethoxy)phenyl]-2-pyridinyl}methoxy)-6,7-dihydro-5H-imidazo[2,1-b][1,3]oxazine] | 5.4 h | 3.7 µM (≈ 1.61 µg/mL) | 427 µg·h/mL | 0.065 µM (≈ 0.0284 µg/mL) | 27 | 0.9 |  |  |  | 
O=[N+]([O-])c1cn2c(n1)OC[C@@H](OCc1ccc(-c3ccc(OC(F)(F)F)cc3Cl)cc1)C2 [compound 1, (6S)-6-{[2'-Chloro-4'-(trifluoromethoxy)[1,1'-biphenyl]-4-yl]methoxy}-2-nitro-6,7-dihydro-5H-imidazo[2,1-b][1,3]oxazine] |  | 0.78 µM (≈ 0.366 µg/mL) | 3360 µg·h/mL | 0.04 µM (≈ 0.0188 µg/mL) | 23 | 2.1 |  |  |  | 
O=[N+]([O-])c1cn2c(n1)OC[C@@H](OCc1ccc(OC(F)(F)F)cc1)C2 [PA-824, reference compound] |  | 2.6 µM (≈ 0.934 µg/mL) | 296 µg·h/mL | 0.5 µM (≈ 0.18 µg/mL) | 1.0 | 1.0 |  |  |  | ~ 2 log
O=[N+]([O-])c1cn2c(n1)OC[C@@H](OCc1ccc(-c3ccc(F)cc3)nc1)C2 [compound 5, (6S)-6-{[6-(4-Fluorophenyl)-3-pyridinyl]methoxy}-2-nitro-6,7-dihydro-5H-imidazo[2,1-b][1,3]oxazine] | 2.7 h | 2.9 µM (≈ 1.07 µg/mL) | 136 µg·h/mL | 0.06 µM (≈ 0.0222 µg/mL) | 7.8 | 20 |  |  | 5300 ng/mL | 
O=[N+]([O-])c1cn2c(n1)OC[C@@H](OCc1ccc(-c3ccc(C(F)(F)F)cn3)cc1)C2 [compound 8, (6S)-2-Nitro-6-({4-[5-(trifluoromethyl)-2-pyridinyl]benzyl}oxy)-6,7-dihydro-5H-imidazo[2,1-b][1,3]oxazine] | 8.8 h | 1 µM (≈ 0.42 µg/mL) | 67.3 µg·h/mL | 0.06 µM (≈ 0.0252 µg/mL) | 33 | 1.7 |  |  | 1100 ng/mL | 
O=[N+]([O-])c1cn2c(n1)OC[C@@H](OCc1ccc(Cc3ccc(OC(F)(F)F)cc3)cc1)C2 [compound 17, (6S)-2-Nitro-6-({4-[4-(trifluoromethoxy)benzyl]benzyl}oxy)-6,7-dihydro-5H-imidazo[2,1-b][1,3]oxazine] |  | 1.1 µM (≈ 0.494 µg/mL) |  | 0.02 µM (≈ 0.00899 µg/mL) |  |  | 85% | 70% |  | 
O=[N+]([O-])c1cn2c(n1)OC[C@@H](OCc1ccc(-c3ccc(OC(F)(F)F)cc3)cc1)C2 [compound 3, (6S)-2-Nitro-6-{[4'-(trifluoromethoxy)[1,1'-biphenyl]-4-yl]methoxy}-6,7-dihydro-5H-imidazo[2,1-b][1,3]oxazine] |  | 1.3 µM (≈ 0.566 µg/mL) | 218 µg·h/mL | 0.035 µM (≈ 0.0152 µg/mL) | >205 | 12 |  |  |  | 
O=[N+]([O-])c1cn2c(n1)OC[C@@H](OCc1ccn(-c3ccc(OC(F)(F)F)cc3)n1)C2 [compound 10, (6S)-2-nitro-6-({1-[4-(trifluoromethoxy)phenyl]-1H-pyrazol-3-yl}methoxy)-6,7-dihydro-5H-imidazo[2,1-A][1,3]oxazine] |  | 0.61 µM (≈ 0.259 µg/mL) | 31.5 µg·h/mL | 0.05 µM (≈ 0.0213 µg/mL) | 41 |  | 87% | 67% |  | 
O=[N+]([O-])c1cn2c(n1)OC[C@@H](OCc1ccc(-c3ccc(C(F)(F)F)nc3)cc1)C2 [compound 9, (6S)-2-Nitro-6-({4-[6-(trifluoromethyl)-3-pyridinyl]benzyl}oxy)-6,7-dihydro-5H-imidazo[2,1-b][1,3]oxazine] |  | 2.1 µM (≈ 0.883 µg/mL) | 414 µg·h/mL | 0.03 µM (≈ 0.0126 µg/mL) | 15 | 4.6 |  |  |  | 
